Values joined by “and” are separate entries in the source; they are usually repeats but may differ in a detail not shown here. Identical values can stand only once. Like-named read-outs stand apart in the source and are kept apart here. Blank lines part the entries; values can stand above or below the compound they belong to.
Legend:
human 17β-HSD2 = target: T1, human 17β-HSD2 (Homo sapiens, UniProt P37059); assay: 17β-HSD2 activity assay using lysates of HEK-293 cells expressing the recombinant human enzyme; format: biochemical; details: for remaining activity at 20 µM: read-out: 17β-HSD2 remaining activity at 20 μM (% of control); for 17β-HSD2 inhibition (in words): tested at 20 μM; for IC50: HEK-293 lysates, 200 nM estradiol, 500 μM NAD+, 10 min 37 °C;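 for all read-outs here: conversion of tritium-labelled estradiol (200 nM, with 500 µM NAD+, 10 min) quantified after TLC separation by scintillation counting, at least three independent measurements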
T1 construct: expressed in transfected cells; host or cells: HEK-293 (ATCC), used as cell lysate
T1 sequence (P37059 1-387): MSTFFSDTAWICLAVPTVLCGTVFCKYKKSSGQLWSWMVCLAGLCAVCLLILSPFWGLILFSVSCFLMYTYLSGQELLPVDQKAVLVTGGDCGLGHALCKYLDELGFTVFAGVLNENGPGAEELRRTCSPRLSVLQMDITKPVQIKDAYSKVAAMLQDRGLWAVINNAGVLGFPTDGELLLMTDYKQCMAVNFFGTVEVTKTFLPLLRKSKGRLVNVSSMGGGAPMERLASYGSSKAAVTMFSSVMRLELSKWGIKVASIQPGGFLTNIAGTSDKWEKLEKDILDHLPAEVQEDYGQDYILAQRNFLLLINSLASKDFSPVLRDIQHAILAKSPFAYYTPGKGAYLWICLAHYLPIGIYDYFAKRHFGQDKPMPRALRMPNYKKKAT

human 17β-HSD1 = target: T2, human 17β-HSD1 (Homo sapiens, UniProt P14061); assay: 17β-HSD1 activity assay using lysates of HEK-293 cells expressing the recombinant human enzyme; format: biochemical; details: for IC50: HEK-293 lysates, 200 nM estrone, 500 μM NADPH
T2 construct: expressed in transfected cells; host or cells: HEK-293 (ATCC), used as cell lysate
T2 sequence (P14061 1-328): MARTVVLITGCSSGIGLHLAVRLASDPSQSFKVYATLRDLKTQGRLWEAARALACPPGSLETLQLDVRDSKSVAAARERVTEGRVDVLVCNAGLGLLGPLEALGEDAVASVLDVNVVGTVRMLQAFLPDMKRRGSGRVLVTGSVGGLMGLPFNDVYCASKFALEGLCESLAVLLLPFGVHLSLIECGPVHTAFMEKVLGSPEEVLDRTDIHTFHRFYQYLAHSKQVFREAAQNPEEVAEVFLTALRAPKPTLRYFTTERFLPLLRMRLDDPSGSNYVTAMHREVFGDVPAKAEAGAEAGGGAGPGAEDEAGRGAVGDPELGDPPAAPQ

[1] = 20 μM compound, % of vehicle control

Compound: CCN(CC)CCCC(C)Nc1ccnc2cc(Cl)ccc12 (racemic) [S17, (±)-chloroquine, reference compound]
17β-HSD2 remaining activity at 20 μM (% of control) (human 17β-HSD2; [1]): 111 ± 13%

Compound: CCOC(=O)c1cc(O)c(O)c(O)c1 [S1, ethyl gallate]
remaining activity at 20 µM (human 17β-HSD2; [1]): 60 ± 6%

Compound: COc1cc(CCC(C)=O)ccc1O [S2, vanillyl acetone]
17β-HSD2 remaining activity at 20 μM (% of control) (human 17β-HSD2; [1]): 106 ± 9%

Compound: CCCCOC(=O)c1cc(O)c(O)c(O)c1 [S3, butyl gallate]
remaining activity at 20 µM (human 17β-HSD2; [1]): 56 ± 5%

Compound: C=CCc1ccc(O)c(OC)c1 [S4, eugenol]
remaining activity at 20 µM (human 17β-HSD2): 94 ± 11%

Compound: COc1cc(/C=C/C(=O)O)ccc1O [S5, ferulic acid]
17β-HSD2 remaining activity at 20 μM (% of control) (human 17β-HSD2; [1]): 79 ± 10%

Compound: COc1cc(CNC(=O)CCCC/C=C/C(C)C)ccc1O [S6, capsaicin]
remaining activity at 20 µM (human 17β-HSD2): 53 ± 6%

Compound: NC(=O)c1cccnc1 [S7, nicotinamide]
remaining activity at 20 µM (human 17β-HSD2; [1]): 106 ± 12%

Compound: O=C(/C=C/c1ccc(O)c(O)c1)O[C@@H]1C[C@](O)(C(=O)O)C[C@@H](O)[C@H]1O [S8, chlorogenic acid]
remaining activity at 20 µM (human 17β-HSD2; [1]): 97 ± 10%

Compound: O=C(O)/C=C/c1ccc(O)c(O)c1 [S9, caffeic acid]
remaining activity at 20 µM (human 17β-HSD2; [1]): 58 ± 13%

Compound: O=C(O)Cc1ccc(O)c(Cl)c1 [S12, 2-(3-chloro-4-hydroxyphenyl)acetic acid]
remaining activity at 20 µM (human 17β-HSD2): 88 ± 7%

Compound: CC(Cc1ccc(O)c(O)c1)C(C)Cc1ccc(O)c(O)c1 (stereo not drawn) [compound 1, nordihydroguaiaretic acid]
times more active toward 17β-HSD2 than 17β-HSD1 (human 17β-HSD1): 15 times | selectivity factor (human 17β-HSD1; 17β-HSD1 versus 17β-HSD2): 15 | selectivity over 17β-HSD1 (human 17β-HSD1; 17β-HSD2 over 17β-HSD1): ≥ 8 fold | IC50 (human 17β-HSD1): 5.5 ± 1.3 µM | IC50 (human 17β-HSD2): 0.38 ± 0.04 µM

Compound: CC1(C)CC[C@]2(C(=O)O)CC[C@]3(C)C(=CC[C@@H]4[C@@]5(C)CC[C@H](O)C(C)(C)[C@@H]5CC[C@]43C)[C@@H]2C1 [compound 2, oleanolic acid]
remaining activity at 20 µM (human 17β-HSD2): 49 ± 6%

Compound: COc1cc([C@H]2OC[C@H]3[C@@H]2CO[C@@H]3c2ccc(O)c(OC)c2)ccc1O [compound 7, pinoresinol]
remaining activity at 20 µM (human 17β-HSD2): 42 ± 5%

Further lines, results first:

17β-HSD2 remaining activity at 20 μM (% of control) (human 17β-HSD2; [1]): 64 ± 5%
Compound: COc1cc(C)cc2oc3ccc(O)c(C(=O)O)c3c(=O)c12 [S10, 2-hydroxy-8-methoxy-6-methyl-9-oxo-9H-xanthene-1-carboxylic acid]

remaining activity at 20 µM (human 17β-HSD2; [1]): 80 ± 10% | 17β-HSD2 inhibition (in words) (human 17β-HSD2): did not inhibit
Compound: NC(=O)Cc1ccc(O)c(Cl)c1 [S11, 2-(3-chloro-4-hydroxyphenyl)acetamide]

remaining activity at 20 µM (human 17β-HSD2; [1]): 101 ± 7%
Compound: COc1cc(/C=C2\N=C(N)NC2=O)ccc1O [S14, polyandrocarpamine A]

remaining activity at 20 µM (human 17β-HSD2; [1]): 108 ± 5% | 17β-HSD2 inhibition (in words) (human 17β-HSD2): did not inhibit
Compound: O=C(O)Cc1ccc(O)cc1 [S15, 2-(4-hydroxyphenyl)acetic acid]

remaining activity at 20 µM (human 17β-HSD2; [1]): 110 ± 10% | 17β-HSD2 inhibition (in words) (human 17β-HSD2): did not inhibit
Compound: NC(=O)Cc1ccc(O)cc1 [S16, 2-(4-hydroxyphenyl)acetamide]

17β-HSD2 remaining activity at 20 μM (% of control) (human 17β-HSD2; [1]): 59 ± 7%
Compound: COC(=O)c1cc2c(c(O)c1OC)[C@H](C)C[C@@H](O)[C@H]2[C@@H](C)CCC=C(C)C [S18, methyl (5R,7R,8S)-4,7-dihydroxy-3-methoxy-5-methyl-8-((S)-6-methylhept-5-en-2-yl)-5,6,7,8-tetrahydronaphthalene-2-carboxylate]

IC50 (human 17β-HSD2): 9.3 µM and 9.27 µM | classification (17β-HSD2 inhibition) (human 17β-HSD2; flavonoid SAR model, Table 4): active
Compound: COc1cc(-c2cc(=O)c3c(O)c(OC)c(O)cc3o2)ccc1O [compound 5, jaceosidin]

IC50 (human 17β-HSD2): 0.36 ± 0.08 µM
Compound: O=C(/C=C/c1ccc(O)cc1)c1ccc(O)cc1O [compound 6, isoliquiritigenin]

IC50 (human 17β-HSD1): 0.049 ± 0.019 µM
Compound: O=c1c2c(O)cc(O)cc2oc2oc3cc(O)ccc3c12 [compound 8, lupinalbin A]

IC50 (human 17β-HSD2): 7.3 ± 2.7 µM | fold less active than 6 (17β-HSD2 IC50) (human 17β-HSD2; compared with compound 6): 20 fold
Compound: O=C(/C=C/c1ccc(O)c(O)c1)c1ccc(O)cc1O [compound 10, butein]
